These results are taken from ChEMBL document CHEMBL1127459, “Synthesis and biological activity of 3-[2-(dimethylamino)ethyl]-5-[(1,1-dioxo-5-methyl-1,2,5-thiadiazolidin- 2-yl)-methyl]-1H-indole and analogues: agonists for the 5-HT1D receptor” (J Med Chem, 1994).

Broadly, the logD is the decadic logarithm of the distribution of all forms, ionised or not, between an organic phase and buffer at a given pH. As a reminder, the IC50 is the point on the concentration scale where inhibition reaches its midpoint. A high value points to a need for much substance. What is called EC50 is the midpoint of the concentration-response curve.

The nature of data set [1]: Partition coefficient at pH 7.4. It counts as physicochemical. The note with it: octanol/water.
The next data set deals with 5-HT1A receptor (Sus scrofa, UniProt A0A4X1UTF5). Kind of data set: Displacement of [3H]8-OH-DPAT binding to 5-hydroxytryptamine 1A receptor from pig cortex.
The target of data set [2] is 5-hydroxytryptamine receptor 1D (Sus scrofa, UniProt P79400). Kind of data set: Displacement of [3H]5-HT binding to 5-hydroxytryptamine 1D receptor from pig caudate membrane. (Loss of bound radioactivity is the signal in a displacement assay; it reports binding, not function.)
5-hydroxytryptamine receptor 1D, sequence (P79400 whole entry): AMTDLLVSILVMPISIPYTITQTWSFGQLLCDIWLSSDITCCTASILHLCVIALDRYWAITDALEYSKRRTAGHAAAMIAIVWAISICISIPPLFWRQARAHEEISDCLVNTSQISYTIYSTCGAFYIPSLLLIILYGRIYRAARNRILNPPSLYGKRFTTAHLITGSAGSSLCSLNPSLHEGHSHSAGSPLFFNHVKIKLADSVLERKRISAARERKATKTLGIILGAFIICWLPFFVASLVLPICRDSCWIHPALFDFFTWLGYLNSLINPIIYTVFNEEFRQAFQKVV
Data set [3] has as its target 5-hydroxytryptamine receptor 2A (Rattus norvegicus, UniProt P14842). Kind of data set: Displacement of [3H]DOB binding to 5-hydroxytryptamine 2A receptor from rat cortex homogenate.
In data set [4] the target is T1, Serotonin 3 (5-HT3) receptor (Rattus norvegicus, UniProt P35563+Q9JJ16).
T1 sequence (P35563 whole entry): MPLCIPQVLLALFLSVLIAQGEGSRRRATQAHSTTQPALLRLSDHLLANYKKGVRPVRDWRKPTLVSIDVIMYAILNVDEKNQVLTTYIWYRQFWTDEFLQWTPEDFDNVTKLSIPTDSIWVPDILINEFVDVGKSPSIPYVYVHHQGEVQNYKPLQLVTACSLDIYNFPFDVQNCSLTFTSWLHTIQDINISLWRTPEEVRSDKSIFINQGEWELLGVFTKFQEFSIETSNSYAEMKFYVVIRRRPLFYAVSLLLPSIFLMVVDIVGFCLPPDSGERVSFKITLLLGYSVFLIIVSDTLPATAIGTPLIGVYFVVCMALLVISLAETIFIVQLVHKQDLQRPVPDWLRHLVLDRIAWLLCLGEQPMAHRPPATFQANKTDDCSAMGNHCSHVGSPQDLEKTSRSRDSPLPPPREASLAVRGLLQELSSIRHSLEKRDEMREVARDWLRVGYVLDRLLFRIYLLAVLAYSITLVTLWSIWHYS
T1 sequence (Q9JJ16 whole entry): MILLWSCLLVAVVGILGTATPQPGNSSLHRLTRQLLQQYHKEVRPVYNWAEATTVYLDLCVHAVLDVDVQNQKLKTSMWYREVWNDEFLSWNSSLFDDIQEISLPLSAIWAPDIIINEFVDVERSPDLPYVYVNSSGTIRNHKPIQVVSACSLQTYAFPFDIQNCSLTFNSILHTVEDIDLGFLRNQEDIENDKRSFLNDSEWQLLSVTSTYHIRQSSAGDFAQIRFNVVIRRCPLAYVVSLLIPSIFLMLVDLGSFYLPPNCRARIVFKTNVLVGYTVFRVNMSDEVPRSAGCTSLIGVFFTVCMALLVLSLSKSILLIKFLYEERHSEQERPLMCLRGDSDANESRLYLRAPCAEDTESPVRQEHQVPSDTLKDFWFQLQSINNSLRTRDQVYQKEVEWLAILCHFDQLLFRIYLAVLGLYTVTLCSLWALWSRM
Nature of the data set: Displacement of [3H]-Q-ICS 205-930 binding to 5-hydroxytryptamine 3 receptor from rat cortex homogenate.

Data set [5] is filed under the species Oryctolagus cuniculus. Kind of data set: Ability to contract saphenous vein of New Zealand white rabbit. In kind it is functional.
The species entered for data set [6] is Oryctolagus cuniculus. Kind of data set: Ability to contract saphenous vein of New Zealand white rabbit. In kind it is functional.

5-hydroxytryptamine receptor 2A, sequence (P14842 whole entry): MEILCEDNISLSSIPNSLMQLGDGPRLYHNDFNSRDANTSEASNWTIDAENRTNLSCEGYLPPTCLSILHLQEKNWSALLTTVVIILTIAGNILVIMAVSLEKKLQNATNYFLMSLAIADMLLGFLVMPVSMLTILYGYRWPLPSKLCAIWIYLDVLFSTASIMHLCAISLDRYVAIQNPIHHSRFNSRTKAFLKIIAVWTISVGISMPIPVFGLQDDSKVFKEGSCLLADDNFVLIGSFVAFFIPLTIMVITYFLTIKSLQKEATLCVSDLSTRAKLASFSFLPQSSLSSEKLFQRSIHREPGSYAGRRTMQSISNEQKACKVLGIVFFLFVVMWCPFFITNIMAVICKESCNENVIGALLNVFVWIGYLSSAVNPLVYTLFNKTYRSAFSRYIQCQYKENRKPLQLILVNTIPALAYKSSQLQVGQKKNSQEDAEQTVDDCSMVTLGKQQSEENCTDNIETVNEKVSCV

For `CC(C)N1CCN(Cc2ccc3[nH]cc(CCN(C)C)c3c2)S1(=O)=O`, the logD in data set [1] came to 0.16. For the same molecule, the IC50 at 5-HT1A receptor is 501 nM; in data set [2] it was 100 nM; in data set [3], over 10000 nM.
As for `CNS(=O)(=O)Cc1ccc2[nH]cc(CCN(C)C)c2c1`, the figures for the IC50 (at 5-HT1A receptor; in data set [4]) were 501 nM and over 10000 nM, respectively.
`CN(C)CCc1c[nH]c2ccc(CCN3CCN(C)S3(=O)=O)cc12`: the logD in data set [1] is -0.57. In addition, the IC50 is 200 nM on 5-HT1A receptor, 39.8 nM in data set [2] and 2510 nM in data set [3]. Further, the EC50 in the data set listed under Oryctolagus cuniculus [5] was 1580 nM.
Take `CN1CCN(Cc2ccc3scc(CCN)c3c2)S1(=O)=O`: the results for the IC50 (at 5-HT1A receptor; in data set [2]; in data set [3]) were 2000 nM, 398 nM and 2000 nM, respectively. The molecule also gave an EC50 in the data set listed under Oryctolagus cuniculus [6] of 12600 nM.
Consider `CCN1CCN(CCc2ccc3[nH]cc(CCN(C)C)c3c2)S1(=O)=O`, for which the results for the IC50 (at 5-HT1A receptor; in data set [2]; in data set [3]) were 126 nM, 39.8 nM and 2000 nM, respectively. Further, the EC50 in the data set listed under Oryctolagus cuniculus [6] is 1580 nM.
In data set [1], `CNCCc1c[nH]c2ccc(CN3CCN(C)S3(=O)=O)cc12` registered a logD of -1.71. Besides, the IC50 was 794 nM on 5-HT1A receptor, 100 nM in data set [2] and over 10000 nM in data set [3]. In addition, in the data set listed under Oryctolagus cuniculus [5], the EC50 is 2000 nM.
As for `CN(C)CCc1c[nH]c2ccc(N3CCN(Cc4ccccc4)S3(=O)=O)cc12`, the IC50 on 5-HT1A receptor was 79.4 nM; in data set [2], 20 nM; in data set [3] it was 5010 nM.
In the case of `CN(C)CCc1c[nH]c2ccc(CN3CCNS3(=O)=O)cc12`, in data set [1], the logD was -0.97. The IC50 at 5-HT1A receptor was 794 nM; in data set [2] it was 100 nM; in data set [3], over 10000 nM. This molecule showed an EC50 in the data set listed under Oryctolagus cuniculus [6] of 2510 nM.
With `CN1CCN(Cc2ccc3[nH]cc(CCN)c3c2)S1(=O)=O`, the IC50 is 631 nM on 5-HT1A receptor, 316 nM in data set [2] and over 10000 nM in data set [3].
As for `CC(=O)Nc1ccc(CN2CCN(Cc3ccc4[nH]cc(CCN(C)C)c4c3)S2(=O)=O)cc1`, the logD in data set [1] came to 0.42. The IC50 at 5-HT1A receptor was 200 nM; in data set [2], 20 nM; in data set [3] it was 7940 nM. The same molecule had a concentration giving a half-maximal response (EC50) in the data set filed under Oryctolagus cuniculus [5] of 501 nM.
Regarding `CN(C)CCc1c[nH]c2ccc(N3CCN(C)S3(=O)=O)cc12`, the logD in data set [1] was -0.92. The IC50 on 5-HT1A receptor is 631 nM; in data set [2], 100 nM; in data set [3], over 10000 nM. This molecule also had an EC50 in the data set filed under Oryctolagus cuniculus [6] of 3160 nM.
Take `CN(C)CCc1c[nH]c2ccc(CN3CC(C)(C)NS3(=O)=O)cc12`: the logD in data set [1] is -0.39. For the same molecule, the IC50 on 5-HT1A receptor is 251 nM; in data set [2], 100 nM; in data set [3] it was over 10000 nM. The half-maximal effective concentration (EC50) in the data set listed under Oryctolagus cuniculus [5] is 2510 nM.
The molecule `CN(C)CCc1c[nH]c2ccc(CN3CCN(C)S3(=O)=O)cc12` yielded a logD in data set [1] of -0.68. Further, the IC50 at 5-HT1A receptor was 794 nM; in data set [2] it was 63.1 nM; in data set [4], over 10000 nM; in data set [3] it was over 10000 nM. Also, the midpoint of the response in the data set listed under Oryctolagus cuniculus [6], the EC50, lay at 631 nM.
`CN(C)CCc1c[nH]c2ccc(CN3C(C)(C)CNS3(=O)=O)cc12` registered a logD in data set [1] of -0.78. Also, the IC50 at 5-HT1A receptor was 1000 nM; in data set [2], 200 nM; in data set [3], over 10000 nM. Moreover, the 50% effective concentration (EC50) in the data set filed under Oryctolagus cuniculus [5] was 6310 nM.
Turning to `CN(C)CCc1c[nH]c2ccc(CN3CCCN(C)S3(=O)=O)cc12`, the logD in data set [1] is -0.02. Besides, the IC50 at 5-HT1A receptor was 126 nM; in data set [2] it was 63.1 nM; in data set [4], over 10000 nM; in data set [3], over 10000 nM. The same molecule had an EC50 in the data set filed under Oryctolagus cuniculus [5] of 2510 nM.
Regarding `CN(C)CCc1c[nH]c2ccc(CCN3CCNS3(=O)=O)cc12`, the half-maximal inhibitory concentration (IC50) at 5-HT1A receptor is 126 nM; in data set [2] it was 39.8 nM; in data set [3], 5010 nM.
